Assay results taken from patent US20240158383A1, “RIBONUCLEOTIDE REDUCTASE (RNR) INHIBITORS AND USES THEREOF” (Boundless Bio, Inc., priority 2021, published 2024).

Experiments:
[1] = system: pCHK1 (S345) in Colo320 DM cells; assay: CHK1 cellular activity (phospho-CHK1 AlphaLisa); assay type: cell-based, human; conditions: Homo sapiens, COLO 320DM, 16 h, compound overnight (approximately 16 hours)
Outline: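 Colo320 DM cells (50,000/well, RPMI-1640 with 10% FBS) were treated with compound overnight (~16 h) at 37 °C, final DMSO <0.5%. Lysates were assayed for pCHK1 (S345) by AlphaLisa SureFire, a replication-stress marker downstream of RNR inhibition.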

RNR (RNR1:RNR2) = RNR (RNR1:RNR2) (Homo sapiens (Human), UniProt P23921+P31350); assay: RNR enzyme activity, rapid-fire mass spectrometry (RFMS) assay; assay type: biochemical; conditions: [RNR] 50 nM, 1:1 RNR1:RNR2, [CDP] 5 μM, [ATP] 1 mM, 37° C., 45 min
Sequence of RNR (RNR1:RNR2) (P23921 whole entry): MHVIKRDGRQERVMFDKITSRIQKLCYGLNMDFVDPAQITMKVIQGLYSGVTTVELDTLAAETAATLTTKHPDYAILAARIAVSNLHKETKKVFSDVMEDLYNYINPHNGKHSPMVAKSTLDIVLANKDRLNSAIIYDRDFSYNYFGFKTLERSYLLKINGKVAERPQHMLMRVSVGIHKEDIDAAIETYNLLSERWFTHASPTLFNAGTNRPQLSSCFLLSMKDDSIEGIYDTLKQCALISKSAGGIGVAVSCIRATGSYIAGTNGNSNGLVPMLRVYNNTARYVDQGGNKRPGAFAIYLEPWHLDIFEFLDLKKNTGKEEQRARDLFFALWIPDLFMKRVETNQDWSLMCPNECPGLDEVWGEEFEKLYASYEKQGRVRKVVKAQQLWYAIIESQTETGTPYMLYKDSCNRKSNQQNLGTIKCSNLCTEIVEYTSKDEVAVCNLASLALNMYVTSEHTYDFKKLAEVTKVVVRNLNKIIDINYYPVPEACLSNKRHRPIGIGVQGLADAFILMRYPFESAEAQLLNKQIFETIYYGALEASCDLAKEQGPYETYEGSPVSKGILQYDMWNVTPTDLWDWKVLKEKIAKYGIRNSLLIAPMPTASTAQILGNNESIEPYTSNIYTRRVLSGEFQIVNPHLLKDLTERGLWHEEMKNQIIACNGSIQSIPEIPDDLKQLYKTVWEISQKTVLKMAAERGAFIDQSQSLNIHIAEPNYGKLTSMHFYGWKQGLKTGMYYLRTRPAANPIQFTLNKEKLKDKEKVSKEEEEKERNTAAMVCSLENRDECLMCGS
Sequence of RNR (RNR1:RNR2) (P31350 whole entry): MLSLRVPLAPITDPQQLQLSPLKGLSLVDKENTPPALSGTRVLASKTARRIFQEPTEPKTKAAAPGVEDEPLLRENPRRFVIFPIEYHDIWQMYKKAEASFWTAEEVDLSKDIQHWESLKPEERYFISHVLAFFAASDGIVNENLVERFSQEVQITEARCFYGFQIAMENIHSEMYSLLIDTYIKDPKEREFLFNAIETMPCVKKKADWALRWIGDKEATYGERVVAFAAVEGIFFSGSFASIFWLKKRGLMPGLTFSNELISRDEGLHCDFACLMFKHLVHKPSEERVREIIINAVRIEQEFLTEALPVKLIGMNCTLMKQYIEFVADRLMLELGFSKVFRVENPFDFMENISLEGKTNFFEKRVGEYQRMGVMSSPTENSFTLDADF
Outline: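 RNR1:RNR2 (1:1, 50 nM final) was preincubated 15 min at room temperature with compound (10 nM–30 μM), then reacted 45 min at 37° C. with 5 μM CDP and 1 mM ATP, without NADPH. Reactions were stopped with 6% formic acid and read by RapidFire mass spectrometry.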

Structure (SMILES) | IC50 [1] [µM] | IC50 (RNR (RNR1:RNR2)) [µM]
Cc1ccc(F)c([C@@H](C)[C@H](NS(=O)(=O)c2ccc(Cl)c3c2OCCC3)c2nn[nH]n2)c1C [Example 74, 5-chloro-N-((1S,2R)-2-(6-fluoro-2,3-dimethylphenyl)-1-(2H-tetrazol-5-yl)propyl)chromane-8-sulfonamide] | ≤ 10 | ≤ 0.1
CNc1cc(Cl)ccc1S(=O)(=O)N[C@H](c1nn[nH]n1)[C@H](C)c1c(F)ccc(C)c1C [Example 75, 4-chloro-N-((1S,2R)-2-(6-fluoro-2,3-dimethylpehnyl)-1-(2H-tetrazol-5-yl)propyl)-2-(methylamino)benzenesulfonamide] | 10 to 30 | 0.1 to 1
Cc1ccc(F)c([C@@H](C)[C@H](NS(=O)(=O)c2ccc(Cl)cc2N(C)CCO)c2nn[nH]n2)c1C [Example 77, 4-chloro-N-((1S,2R)-2-(6-fluoro-2,3-dimethylphenyl)-1-(2H-tetrazol-5-yl)propyl)-2-((2-hydroxyethyl)(methyl)amino)benzenesulfonamide] | 10 to 30 | ≤ 0.1

Further lines, results first:

IC50 [1] [µM] | IC50 (RNR (RNR1:RNR2)) [µM] | Structure (SMILES)
50 to 100 | 0.1 to 1 | CNC(=O)c1cc(Cl)ccc1S(=O)(=O)N[C@H](c1nn[nH]n1)[C@H](C)c1c(F)ccc(C)c1C [Example 76, 5-chloro-2-(N-((1S,2R)-2-(6-fluoro-2,3-dimethylphenyl)-1-(2H-tetrazol-5-yl)propyl)sulfamoyl)-N-methylbenzamide]
30 to 50 | 0.1 to 1 | Cc1ccc(F)c([C@@H](C)[C@H](NS(=O)(=O)c2ccc(Cl)cc2N2CCOCC2)c2nn[nH]n2)c1C [Example 78, 4-chloro-N-((1S,2R)-2-(6-fluoro-2,3-dimethylphenyl)-1-(2H-tetrazol-5-yl)propyl)-2-morpholinobenzenesulfonamide]
50 to 100 | 0.1 to 1 | Cc1ccc(F)c([C@@H](C)[C@H](NS(=O)(=O)c2ccc(Cl)cc2N2CCN(C)CC2)c2nn[nH]n2)c1C [Example 79, 4-chloro-N-((1S,2R)-2-(6-fluoro-2,3-dimethylphenyl)-1-(2H-tetrazol-5-yl)propyl)-2-(4-methylpiperazin-1-yl)benzenesulfonamide]
30 to 50 | 0.1 to 1 | Cc1ccc(F)c([C@@H](C)[C@H](NS(=O)(=O)c2ccc(Cl)cc2N2CCCCC2)c2nn[nH]n2)c1C [Example 80, 4-chloro-N-((1S,2R)-2-(6-fluoro-2,3-dimethylphenyl)-1-(2H-tetrazol-5-yl)propyl)-2-(piperidin-1-yl)benzensulfonamide]
